Read-outs that look alike come from different tables or passages of the source.
Test system: HCV proteins in Rep5.1 cells (replicon cell line)
Experiment: Inhibitory activity of HCV: cell-based ELISA in replicon cell line Rep5.1 (decrease of HCV proteins)
Parameters: species or system hepatitis C virus
Conditions: Rep5.1 cells, 72 hours with drug
Method in brief: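 HCV protein loss was quantified by ELISA on methanol/acetone-fixed cells 72 h after drug addition, probing with selected HCV-positive human plasma, and IC50 was defined as 50% reduction relative to untreated wells. The cells were Rep5.1 replicon cells cultured in DMEM-10 with 500 μg/ml G418, plated at 5000 per well and dosed with serial dilutions after 4 h attachment.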

[1] = concentration at which 50% of HCV proteins was decreased, Table 2, read-out: IC50
[2] = Hepatitis C virus, 72 h, concentration at which 50% of HCV proteins was decreased, Table 2, read-out: IC50
[3] = Hepatitis C virus, 72 h, decrease of HCV proteins measured by HCV antibody, Table 1, read-out: Level (IC50 values classified)

Compound	IC50 [1] [nM]	IC50 [2] [nM]	IC50 [3] [nM]
CC1=C(C(=O)OCCc2ccc(F)cc2)CNC(=S)N1 [Compound 93, 6-methyl-2-thioxo-1,2,3,4-tetrahydro-pyrimidine-5-carboxylic acid 2-(4-fluoro-phenyl)-ethyl ester]	700	–	–
CC1=C(C(=O)OCCOCCc2ccsc2)C(CO)NC(=S)N1 (centres unmarked) [16″, 4-hydroxymethyl-6-methyl-2-thioxo-1,2,3,4-tetrahydro-pyrimidine-5-carboxylic acid 2-(2-thiophen-3-yl-ethoxy)-ethyl ester]	–	> 100000	> 20000
CC1=C(C(=O)OCc2c(C)nn(-c3ccccc3)c2C)CNC(=S)N1 [Compound 181, 6-methyl-2-thioxo-1,2,3,4-tetrahydro-pyrimidine-5-carboxylic acid 3,5-dimethyl-1-phenyl-1H-pyrazol-4-ylmethyl ester]	–	> 100000	> 20000
CC1=C(C(=O)OCCc2cccc([N+](=O)[O-])c2)C(COC(=O)c2ccc(C(=O)O)cc2)NC(=S)N1 (centres unmarked) [90″, terephthalic acid mono-{6-methyl-5-[2-(3-nitro-phenyl)-ethoxycarbonyl]-2-thioxo-1,2,3,4-tetrahydro-pyrimidin-4-ylmethyl}ester]	–	6900	1000 to 10000
CC1=C(C(=O)OCCc2ccccc2)CNC(=S)N1 [Compound 34, 6-methyl-2-thioxo-1,2,3,4-tetrahydro-pyrimidine-5-carboxylic acid phenethyl ester]	–	2000	1000 to 10000
CC1=C(C(=O)OCCc2ccsc2)[C@H](CF)NC(=S)N1 [24′, (R)-4-fluoromethyl-6-methyl-2-thioxo-1,2,3,4-tetrahydro-pyrimidine-5-carboxylic acid 2-thiophen-3-yl-ethyl ester]	–	4400	1000 to 10000
CC1=C(C(=O)OCc2ccc(-c3ccccc3)cc2)C(CO)NC(=S)N1 (centres unmarked) [28″, 4-hydroxymethyl-6-methyl-2-thioxo-1,2,3,4-tetrahydro-pyrimidine-5-carboxylic acid biphenyl-4-ylmethyl ester]	–	1000	< 1000
CC1=C(C(=O)OCc2cccc(Oc3ccccc3)c2)C(CO)NC(=S)N1 (centres unmarked) [46″, 4-hydroxymethyl-6-methyl-2-thioxo-1,2,3,4-tetrahydro-pyrimidine-5-carboxylic acid 3-phenoxy-benzyl ester]	–	< 400	< 1000
CC1=C(C(=O)OCCc2ccc(C)c(Cl)c2)C(CO)NC(=S)N1 (centres unmarked) [74″, 4-hydroxymethyl-6-methyl-2-thioxo-1,2,3,4-tetrahydro-pyrimidine-5-carboxylic acid 2-(3-chloro-4-methyl-phenyl)-ethyl ester]	–	< 400	< 1000
O=C(OCc1ccccc1)C1=C(c2cccc3ccccc23)NC(=S)NC1 [Compound 17, 6-naphthalen-1-yl-2-thioxo-1,2,3,4-tetrahydro-pyrimidine-5-carboxylic acid benzyl ester]	–	100000	> 20000
CC1=C(C(=O)OCc2sccc2-n2cccc2)CNC(=S)N1 [Compound 220, 6-methyl-2-thioxo-1,2,3,4-tetrahydro-pyrimidine-5-carboxylic acid 3-pyrrol-1-yl-thiophen-2-ylmethyl ester]	–	800	< 1000
CCC#CCCOC(=O)C1=C(C)NC(=S)NC1 [Compound 157, 6-methyl-2-thioxo-1,2,3,4-tetrahydro-pyrimidine-5-carboxylic acid hex-3-inyl ester]	1000	–	–
CC1=C(C(=O)OC(C)CCc2ccccc2)CNC(=S)N1 (centres unmarked) [Compound 42, 6-methyl-2-thioxo-1,2,3,4-tetrahydro-pyrimidine-5-carboxylic acid 1-methyl-3-phenyl-propyl ester]	–	500	< 1000
CCCCc1ccc(COC(=O)C2=C(C)NC(=S)NC2)cc1 [Compound 51, 6-methyl-2-thioxo-1,2,3,4-tetrahydro-pyrimidine-5-carboxylic acid 4-butyl-benzyl ester]	–	< 500	< 1000

Reference: US20060116390A1, “Hepatitis c virus inhibitors” (priority 2003, published 2006)
